Like-named read-outs stand apart in the source and are kept apart here.

These results are taken from patent US20250297028A1, “TREATMENT OF RENAL CANCER USING A COMBINATION OF AN ANTI-PD-1 ANTIBODY AND ANOTHER ANTI-CANCER AGENT” (BRISTOL-MYERS SQUIBB COMPANY, priority 2014, published 2025).

The test system of series [1] is renal cell carcinoma (RCC). The following applies: cited from earlier work; for OS (overall survival): phase 3, poor-risk patients with advanced RCC (Hudes et al., 2007).
Series [2] has as its system murine renal carcinoma (Renca) tumor. The series can be described thus: Efficacy study in Renca murine RCC tumor model. In kind it is in vivo, mouse. The following applies: for % TGI (tumor growth inhibition) / Objective Responses (ORs): 33 days after implantation; for % TGI (tumor growth inhibition): sunitinib 120 mg/kg QD×14 PO, sorafenib 200 mg/kg QD×14 PO, 4H2 10 mg/kg Q4D×4 IP; for Objective Responses (ORs): responders/8 mice. An excerpt: Female 8-12 weeks old Balb/c and C57/BL6 mice (Harlan Laboratories, Federick, MD) were used in all studies. Mice were housed in sterile microisolator cages and administered sterile food and water ad libitum, unless otherwise specified.
The murine renal carcinoma (Renca) and murine colon adenocarcinoma (CT-26) tumor cell lines were maintained in vitro for less than 10 passages.
Tumor cells were implanted subcutaneously (SC). When the mean tumor volume reached about 100 mm^3, mice were randomized into groups of 8 animals. Vehicle (control), sunitinib (120 mg/kg) or sorafenib (200 mg/kg) was orally administered once daily for 14 days (QD×14, PO). MAb 4H2 was administered at 10 mg/kg every 4 days for a total of 4 treatments (Q4D×4) intraperitoneally (IP). Tumors were measured twice weekly, and the tumor volume was calculated as length×(width^2/2).

The subject of series [3] is tumor-infiltrating immune cells in Renca tumors. The series can be described thus: Immune cell infiltration of Renca tumors (immunohistochemistry, flow cytometry). In kind it is in vivo, mouse. Particulars: versus control group. The procedure: Immunohistochemistry and flow cytometry analyses were used to assess immune cell infiltration of tumors.
Frozen sections were fixed in an acetone/methanol mix and rinsed in phosphate-buffered saline (PBS). Sections were blocked for endogenous peroxidase and the primary antibodies (anti-CD8, anti-CD4, anti-FoxP3, and anti-PD-L1) were added and incubated overnight. Chromogenic development was done using a brown polymer-based detection system (Biocare Medical), with hematoxylin used as a blue counter stain for visualization of cellular nuclei.
Tumor-infiltrating immune cells were isolated and prepared as a single-cell suspension, then stained and analyzed via flow cytometry for expression of T-cell subsets (regulatory and activated) and myeloid cells (i.e., for expression of CD3, CD4, CD8, FoxP3, CD25, and CD69).

The target of a further series is T1, PD-1 (Homo sapiens, UniProt Q15116).
T1 construct: indicate that PD-1 occupancy appears to be dose-independent in this dose range; endogenous in cells
T1 sequence (Q15116 25-288): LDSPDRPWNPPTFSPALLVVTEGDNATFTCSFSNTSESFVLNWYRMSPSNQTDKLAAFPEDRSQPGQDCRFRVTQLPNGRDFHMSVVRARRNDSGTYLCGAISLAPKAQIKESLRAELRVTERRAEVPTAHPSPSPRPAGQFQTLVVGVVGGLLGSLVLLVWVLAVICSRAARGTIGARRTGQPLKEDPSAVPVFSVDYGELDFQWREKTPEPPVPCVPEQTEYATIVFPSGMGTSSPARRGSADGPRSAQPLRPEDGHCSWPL
Particulars: 15 subjects, 0.3 to 10 mg/kg, across all doses; cited from earlier work.

For series [4] the following is noted: dosing up to 10 mg/kg every two weeks; cited from earlier work.

Regarding `CO[C@H]1C[C@@H]2CC[C@@H](C)[C@@](O)(O2)C(=O)C(=O)N2CCCC[C@H]2C(=O)O[C@H]([C@H](C)C[C@@H]2CC[C@@H](OCCO)[C@H](OC)C2)CC(=O)[C@H](C)/C=C(\C)[C@@H](O)[C@@H](OC)C(=O)[C@H](C)C[C@H](C)/C=C/C=C/C=C/1C` [Everolimus], the “improvement in median progression-free survival (PFS) versus placebo” value in series [1] (Motzer et al., 2008) is recorded as 2.1 month. For the same compound, the OS improvement entry in series [1] (versus placebo (Motzer et al., 2008)) is recorded as “no OS improvement”.
On to `CNC(=O)c1cc(Oc2ccc(NC(=O)Nc3ccc(Cl)c(C(F)(F)F)c3)cc2)ccn1` [Sorafenib], for which, in series [2], the “% TGI (tumor growth inhibition)” value is 62% and the “Objective Responses (ORs)” value is given as 0/8. The “activity as monotherapy in Renca model” value in series [2] (monotherapy) was “active”. Besides, the “infiltration of CD4+ and CD8+ T cells into tumor (IHC)” value in series [3] was “increased T-cell infiltration into the tumor was not observed”. Further, the response rate in series [1] (randomized Phase 2, 128 treatment-naïve mRCC subjects (Procopio et al., 2011)) was 15%.
Consider `CCN(CC)CCNC(=O)c1c(C)[nH]c(/C=C2\C(=O)Nc3ccc(F)cc32)c1C` [Sunitinib], for which, in series [2], the “% TGI (tumor growth inhibition)” value is on record as 85% and the “Objective Responses (ORs)” value is recorded as 0/8.
As for `CO[C@H]1C[C@@H]2CC[C@@H](C)[C@@](O)(O2)C(=O)C(=O)N2CCCC[C@H]2C(=O)O[C@H]([C@H](C)C[C@@H]2CC[C@@H](OC(=O)C(C)(CO)CO)[C@H](OC)C2)CC(=O)[C@H](C)/C=C(\C)[C@@H](O)[C@@H](OC)C(=O)[C@H](C)C[C@H](C)/C=C/C=C/C=C/1C` [temsirolimus], the “OS (overall survival)” value in series [1] was 10.9 months.
As for IFNα, in series [1], the “OS (overall survival)” value was 7.3 months.
Turning to “ipilimumab: fully human, IgG1 monoclonal Ab that blocks the binding of CTLA-4 to its B7 ligands”, the ORR is given as 5% in series [1] (Phase 2 metastatic RCC, cohort A: 3 mg/kg loading dose then 1 mg/kg every 3 wk (Yang et al., 2007)) and 12.5% in series [1] (Phase 2 metastatic RCC, cohort B: 3 mg/kg every 3 wk for all doses (Yang et al., 2007)).
As to nivolumab, the ORR is 20% in series [1] (0.3 mg/kg, Phase 2 metastatic RCC (Motzer et al., 2014)); 9% in series [1] (0.3 mg/kg, pretreated with 1-3 prior anti-angiogenic therapies (Choueiri et al., 2014)); 22% in series [1] (2 mg/kg, Phase 2 metastatic RCC (Motzer et al., 2014)); 23% in series [1] (2 mg/kg, pretreated with 1-3 prior anti-angiogenic therapies (Choueiri et al., 2014)); 20% in series [1] (10 mg/kg, Phase 2 metastatic RCC (Motzer et al., 2014)); 22% in series [1] (10 mg/kg, pretreated with 1-3 prior anti-angiogenic therapies (Choueiri et al., 2014)). Further, the ORR in series [1] (10 mg/kg, treatment-naïve patients (Choueiri et al., 2014)) is listed as 13%; in series [1] (nivolumab 1 or 10 mg/kg alone, RCC, Phase 1 (WO 2013/173223)), 28-31%. On PD-1, the “mean PD-1 occupancy rate” value is listed as 85%. The “mean plateau PD-1 occupancy” value on PD-1 is on record as 72%. Further, in series [4], the “maximum tolerated dose (MTD), monotherapy” value is “without reaching the maximum tolerated does (MTD)”.
